Source: patent US7288573B2, “Method of repelling insects” (priority 2001, dated 2007)

Columns and labels:
Format in all cases: in vivo
[1] = Observation on the investigator's skin after application (Example 6); details: applied at full strength (100%) to hand/arm
[2] = tested on: cockroaches; test: Cockroach repellency, paste floor wax with 2-undecanone; details: one percent by weight in paste floor wax
Text: A commercially available paste floor wax is combined with one percent by weight of 2-undecanone and the two ingredients mixed thoroughly together. The paste floor wax is then applied to a region of flooring and buffed. The same paste floor wax, without 2-undecanone, is applied to an adjacent region of flooring in the same amount and also buffed.

[3] = tested on: Culex spp.; test: Mosquito repellency of 2-undecanone versus DEET, treated cloth on forearm (Example 8); details: 5% and 20% in ethyl alcohol sprayed onto cloth; landings in 5 minutes
Experimental: 2-undecanone was dissolved in ethyl alcohol (v/v at 5% and 20%) and approximately 1 ml was sprayed onto cloth that was then wrapped around the investigator's forearm prior to insertion into a 59 cm×55 cm×59 cm mosquito cage containing approximately 100 Culex spp. adult mosquitoes. DEET was a formulated, commercial product (Cutter). The number of mosquito landings in 5 minutes was recorded as well as the overall behavior response of the mosquitoes. […] The most impressive evidence of this repellent effect was the observation that the mosquitoes immediately disperse away from the treated arm and actually stop flying, instead lining up on the wire screen of the cage.
The results are shown in FIG. 5 as a graph of repellency as a function of time for 0 hr, 3 hr and 6 hr post-application of the formulations (i) 21% DEET, (ii) 20% 2-undecanone (IBI-246) and (iii) 5% 2-undecanone (IBI-246), where repellency={[# mosquito landings in Control test/# mosquitoes present in Control)−(# mosquito landings in Experiment/# mosquitoes present in Experiment)] divided by (# mosquito landings in Control test/# mosquitoes present in Control)}×100.

[4] = tested on: Aedes taeniorhynchus; test: Mosquito repellency of undecanone, treated gauze glove in cage
Experimental: Forty milliliters of a 2.5 percent solution of undecanone in absolute ethanol was added to a gauze glove (20×15 centimeters) in a 250 milliliter beaker. After soaking for 1 minute, the glove was laid onto aluminum foil in a fume hood for 13 minutes and then suspended by one end from the sash of the fume hood for 3 minutes. The ethanol appeared to be completely evaporated after this treatment as determined by touch. […] The same treatment was used without undecanone as a control. After the same drying steps, no odor of ethanol could be detected by smell. The control glove was the same physical dimensions and made from the same batch of material as the treatment. […]
Approximately 100 adult male and female mosquitoes (Aedes taeniorhynchus) (exact sex ratio not determined) were placed in a 12×12×14.5 inch stainless steel screened cage. […]
The following data are the control responses when the tester's hand covered by the ethanol treated (dried) glove was placed into the mosquito cage (at room temperature) for 20 seconds at the times indicated: 0 minutes, 10 landings and 1 bite; 10 minutes, 9-12 landings and 1 bite; 20 minutes, approximately 13 landings and no bites; and 40 minutes, approximately 13 landings and no bites. […] However, only sustained landings of about 5 seconds were recorded as a positive response along with actual bites. […]

Row | Structure (SMILES) | skin irritation on application [1] | time cockroaches spend in treated region versus control region of flooring [2] | concentrations with the strongest repellent effect [3] | landings and bites ([4]; glove soaked in 2.5 percent solution in ethanol, dried, hand in cage 20 seconds at 0 minutes to 4 hours and 40 minutes) | host seeking behavior ([4]; glove soaked in 2.5 percent solution, first 3 to 4 hours)
1 | CCCCCCCCCCCC(C)=O [2-tridecanone] | mildly irritating | – | – | – | –
2 | CCCCCCCCCC(C)=O [2-undecanone] | – | spend less time in the region containing 2-undecanone | strongest effect at the 20% and 5% concentrations | No landings and no bites | no host seeking behavior
